Test results taken from patent US7879868B2 (Novartis AG, priority 2002, dated 2011).
Where two headings read alike, the source gives them in different places.

Columns and labels:
[1] = Effect of imatinib on irinotecan pharmacokinetics in mice; settings: for bioavailability: mouse, plasma, oral; for SN-38 plasma exposure: irinotecan 10 mg/kg oral
Source text: Ci: rate of clearance; Ka: absorption rate; F: calculated bioavailability (relative to intravenous dosing).

Saos2BCRP#4 cells = assay: cells
Saos2pcDNA#3#2 cells = assay: Growth inhibition in vector control Saos2 cells; format: cell-based, human
Saos2BCRPMUT#10 cells = assay: cells
BCRP = molecular target: T1, BCRP (Homo sapiens, UniProt Q9UNQ0)
T1 sequence (Q9UNQ0 1-655): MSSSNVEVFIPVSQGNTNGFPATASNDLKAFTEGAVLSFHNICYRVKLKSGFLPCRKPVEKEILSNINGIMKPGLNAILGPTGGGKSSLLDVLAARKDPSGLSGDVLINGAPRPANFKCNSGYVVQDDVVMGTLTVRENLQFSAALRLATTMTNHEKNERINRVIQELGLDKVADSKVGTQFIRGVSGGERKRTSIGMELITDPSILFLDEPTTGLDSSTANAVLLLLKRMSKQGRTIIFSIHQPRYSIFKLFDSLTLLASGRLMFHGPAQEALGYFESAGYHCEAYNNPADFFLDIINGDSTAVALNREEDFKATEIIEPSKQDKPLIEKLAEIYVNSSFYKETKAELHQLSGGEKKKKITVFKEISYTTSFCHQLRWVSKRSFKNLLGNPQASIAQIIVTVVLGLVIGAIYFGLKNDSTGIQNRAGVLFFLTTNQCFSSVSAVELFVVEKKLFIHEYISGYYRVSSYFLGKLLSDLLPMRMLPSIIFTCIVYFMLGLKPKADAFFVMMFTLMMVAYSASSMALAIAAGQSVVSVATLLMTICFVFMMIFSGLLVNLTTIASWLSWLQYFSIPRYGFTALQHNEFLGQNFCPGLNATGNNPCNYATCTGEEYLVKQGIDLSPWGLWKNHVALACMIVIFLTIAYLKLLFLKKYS

[2] = read-out: concentration of SN-38 causing 50% growth inhibition (IC50), imatinib 0 μM
[3] = read-out: concentration of SN-38 causing 50% growth inhibition (IC50), imatinib 0.1 μM
[4] = read-out: concentration of SN-38 causing 50% growth inhibition (IC50), imatinib 0.3 μM
[5] = read-out: concentration of SN-38 causing 50% growth inhibition (IC50), imatinib 1.0 μM
[6] = read-out: concentration of SN-38 causing 50% growth inhibition (IC50), imatinib 3.0 μM
[7] = Homo sapiens, SAOS-2, read-out: concentration of topotecan causing 50% growth inhibition, in presence of 1 μM imatinib
[8] = Homo sapiens, SAOS-2, read-out: concentration of topotecan causing 50% growth inhibition, in presence of 3 μM imatinib
[9] = Homo sapiens, SAOS-2, read-out: concentration of topotecan causing 50% growth inhibition, in presence of 5 μM imatinib
[10] = Homo sapiens, SAOS-2, read-out: concentration of topotecan causing 50% growth inhibition, topotecan alone

In the case of `CCc1c2c(nc3ccc(OC(=O)N4CCC(N5CCCCC5)CC4)cc13)-c1cc3c(c(=O)n1C2)COC(=O)[C@]3(O)CC` [IRN], the bioavailability [1] is reported as 23 ± 2% and the bioavailability ([1]; 10 mg/kg) is reported as 9 ± 2%.
For `CCc1c2c(nc3ccc(O)cc13)-c1cc3c(c(=O)n1C2)COC(=O)[C@]3(O)CC` [SN-38, 7-ethyl-10-hydroxycamptothecin], the SN-38 plasma exposure ([1]; mice, with imatinib 50 mg/kg oral) was 775 ng/h/mL, the SN-38 plasma exposure ([1]; mice, without imatinib) was 263 ng/h/mL and the IC50 (Saos2BCRP#4 cells; [2]) was > 100 nM. It also gave an IC50 (Saos2BCRP#4 cells; [3]) of 82 nM, an IC50 (Saos2BCRP#4 cells; [4]) of 29 nM and an IC50 (Saos2BCRP#4 cells; [5]) of 14 nM. The IC50 (Saos2BCRP#4 cells; [6]) was 7 nM, the IC50 (Saos2pcDNA#3#2 cells; [2]) was 2.9 nM and the IC50 (Saos2pcDNA#3#2 cells; [3]) was 2.7 nM. It also gave an IC50 (Saos2pcDNA#3#2 cells; [4]) of 2.7 nM, an IC50 (Saos2pcDNA#3#2 cells; [5]) of 3.3 nM and an IC50 (Saos2pcDNA#3#2 cells; [6]) of 3.7 nM. It also gave an IC50 (Saos2BCRPMUT#10 cells; [2]) of 1.7 nM, an IC50 (Saos2BCRPMUT#10 cells; [3]) of 1.7 nM and an IC50 (Saos2BCRPMUT#10 cells; [4]) of 1.6 nM. The IC50 (Saos2BCRPMUT#10 cells; [5]) was 1.7 nM and the IC50 (Saos2BCRPMUT#10 cells; [6]) was 1.6 nM.
In the case of `Cc1ccc(NC(=O)c2ccc(CN3CCN(C)CC3)cc2)cc1Nc1nccc(-c2cccnc2)n1` [imatinib], the “effect of imatinib on oral bioavailability of irinotecan” value ([1]; mice, imatinib 50 mg/kg oral + irinotecan 10 mg/kg oral) is reported as “enhances oral bioavailability of irinotecan” and the “reversal of BCRP-mediated resistance to topotecan (summary of Table 1)” value (BCRP) is reported as “complete reversal of BCRP-mediated resistance to topotecan”.
In the case of `CC[C@@]1(O)C(=O)OCc2c1cc1n(c2=O)Cc2cc3c(CN(C)C)c(O)ccc3nc2-1` [topotecan], the IC50 (Saos2BCRP#4 cells; Homo sapiens, SAOS-2, read-out: IC50 concentration of topotecan, Saos2BCRP#4 cells) is reported as 167 nM, the IC50 (Saos2BCRP#4 cells; [7]) is reported as 35 nM and the IC50 (Saos2BCRP#4 cells; [8]) is reported as 24 nM. The IC50 (Saos2BCRP#4 cells; [9]) was 22 nM, the IC50 (Saos2BCRP#4 cells; [10]) was 254 nM and the IC50 (Saos2pcDNA#3#2 cells; Homo sapiens, SAOS-2, Saos2pcDNA cells, read-out: IC50 concentration of topotecan) was 16 nM. For the same compound, the IC50 (Saos2pcDNA#3#2 cells; Homo sapiens, SAOS-2, in presence of 1 μM imatinib, read-out: concentration of topotecan causing 50% growth inhibition) was 23 nM, the IC50 (Saos2pcDNA#3#2 cells; Homo sapiens, SAOS-2, in presence of 3 μM imatinib, read-out: concentration of topotecan causing 50% growth inhibition) was 20 nM and the IC50 (Saos2pcDNA#3#2 cells; Homo sapiens, SAOS-2, in presence of 5 μM imatinib, read-out: concentration of topotecan causing 50% growth inhibition) was 23 nM. The IC50 (Saos2pcDNA#3#2 cells; Homo sapiens, SAOS-2, topotecan alone, read-out: concentration of topotecan causing 50% growth inhibition) was 20 nM, the IC50 (Saos2BCRPMUT#10 cells; Homo sapiens, SAOS-2, read-out: IC50 concentration of topotecan, Saos2Mut#10 cells) was 9 nM and the IC50 (Saos2BCRPMUT#10 cells; [7]) was 18 nM. The IC50 (Saos2BCRPMUT#10 cells; [8]) was 9.9 nM, the IC50 (Saos2BCRPMUT#10 cells; [9]) was 15 nM and the IC50 (Saos2BCRPMUT#10 cells; [10]) was 9 nM.
